The subject of series [1] is normal human liver cells HL-7702. Kind of series: MTT cell viability assay, HL-7702. As to conditions: MTT after 72 hours. On the procedure:
(§1) Cell culture: cancer cell lines HepG2 and Hep3B are obtained from ATCC (VA, USA), Human liver cells HL-7702 and murine liver cancer cells H22 are obtained from Shanghai Institute of Life Science Cell Culture Center (Shanghai, China). All the cells are maintained in high glucose DMEM or RPMI-1640 medium (Invitrogen, GA, USA) supplemented with 10% heat-inactivated fetal bovine serum (FBS), 25 mM HEPES, 2 mM L-glutamine, 0.1 mM nonessential amino acids, 1.0 mM sodium pyruvate, 50 U/mL penicillin, and 50 ug/ml streptomycin at 37° C. and 5% CO2.
(§2) Methods of cell viability assay: liver cells are seeded on 96-well plates, AZT-QX, Zidovudine, quinoline piperazine derivatives and doxorubicin are added in respectively, the concentration thereof are from 1 nM to […]. After 72 hours, an MTT assay is carried out to determine the cell viability [See method in: Zhou, et al. Chem. Res. Toxicol. 2008, 21, 732-738.].
(§3) Selective biological activity of AZT-QX is assessed using cell viability assays MTT on human liver carcinoma cells with hepatitis B Hep3B, hepatoblastoma cell line HepG2 and normal human liver cells HL-7702 (FIG. 3).
(§4) FIG. 3 illustrates determined cell viability of Hep3B hepatoma cells with hepatitis B, a HepG2 hepatoblastoma cell line and HL-7702 normal […] treated with AZT-QX (FIG. 3a), doxorubicin (FIG. 3b), Pip-QX (FIG. 3c), and Zidovudine (FIG. 3d).
For orientation: Tetrazolium assays rely on reduction of a dye to a coloured formazan, in cell work by metabolically active cells.

Another series deals with H22 liver cancer cells. Kind of series: subcutaneous H22 liver tumor model in mice, tumor size and volume. It counts as in vivo, BALB/c mice. As to conditions: for volume: individual mice, 50 μM 100 μl on day 1 and day 7. On the procedure: The liver cancer tumor models are established by subcutaneously injecting H22 hepatoma cells. […] The further statistical analysis (see FIG. 6) confirms that as compared with the other two, AZT-QX has greater effectiveness p<0.01, and at a low dosage (0.13 mg/kg at a time, twice).
FIG. 6 illustrates the average growth of tumors in mice after administration and tumors in mice after 12 days, in which FIG. 6a is a figure of the average growth of tumors in mice; FIG. 6b is contrast of tumors in mice 12 days after different drug treatments. The control is a blank contrast, AZT is Zidovudine, AZT-QX is application of the compound of the invention.

Series [2] is described as follows: body weight of mice in the H22 liver tumor model. To be noted: individual mice, 50 μM 100 μl on day 1 and day 7, in g (unit assumed).
Description: Animal groups and drug administration: mice are divided into 3 groups once tumors reach an average size of 8.8×8.8 mm.
In series [3] the test system is hepatoma cells with hepatitis B. Kind of series: anti-BrdU fluorescence assay of nucleic acid synthesis, hepatoma cells. It counts as cell-based. From the text:
(§5) The anti-BrdU fluorescence assay is used to determine the nucleic acid synthesis in cells (FIG. 4).
(§6) FIG. 4 illustrates fluorescence images of an anti-BrdU assay of nucleic acid synthesis in cells. As shown in the figure, the green fluorescence illustrates the nucleic acid synthesis in cells, and the blue fluorescence illustrates the nuclear staining.

The test system of series [4] is human liver carcinoma cells with hepatitis B Hep3B. Kind of series: MTT cell viability assay, Hep3B. It counts as cell-based. On the procedure: as §1, §2, §3, §4
Series [5] has as its system hepatoblastoma cell line HepG2. Kind of series: MTT cell viability assay, HepG2. It counts as cell-based, human. As to conditions: MTT after 72 hours. On the procedure: as §1, §2, §3, §4
Series [6] relates to normal liver cells HL-7702. Kind of series: anti-BrdU fluorescence assay of nucleic acid synthesis, normal liver cells. It counts as cell-based, human.
Description: as §5, §6

Several values for one entry are separate records, joined by “and”; a condition that tells them apart may be missing. Identical values can stand only once.

In the case of `COc1cccc2c1C(=O)c1c(O)c3c(c(O)c1C2=O)C[C@@](O)(C(=O)CO)C[C@@H]3O[C@H]1C[C@H](N)[C@H](O)[C@H](C)O1` [doxorubicin], in series [1], the “toxicity to normal liver cells HL-7702 (in words)” value is on record as “more severe than to hepatoma cells”.
Take `Cc1cn([C@H]2C[C@H](N=[N+]=[N-])[C@@H](CO)O2)c(=O)[nH]c1=O` [Zidovudine]: the volume with H22 liver cancer cells (Day 1, in mm³ (unit assumed)) was 220.5 and 364.5 and 405; in the series on H22 liver cancer cells (Day 2, in mm³ (unit assumed)), 245 and 550 and 405; in the series on H22 liver cancer cells (Day 3, in mm³ (unit assumed)), 320 and 665.5 and 600; in the series on H22 liver cancer cells (Day 4, in mm³ (unit assumed)), 650 and 726 and 786.5; with H22 liver cancer cells (Day 5, in mm³ (unit assumed)) it was 486 and 936 and 786.5; with H22 liver cancer cells (Day 6, in mm³ (unit assumed)), 1028.5 and 1183 and 1470. Further, the volume was 1149.5 and 1687.5 and 1568 with H22 liver cancer cells (Day 7, in mm³ (unit assumed)); 1368 and 3402 and 2560 in the series with H22 liver cancer cells (Day 8, in mm³ (unit assumed)); 1368 and 3610 and 3240 with H22 liver cancer cells (Day 9, in mm³ (unit assumed)); 1368 and 3790.5 and 4851 in the series on H22 liver cancer cells (Day 10, in mm³ (unit assumed)); 1440 and 4400 and 5071.5 in the series on H22 liver cancer cells (Day 11, in mm³ (unit assumed)); 1960 and 5292 and 4851 with H22 liver cancer cells (Day 12, in mm³ (unit assumed)). The BW in series [2] (Day 1) was 26.9 and 29.9 and 31.9; in series [2] (Day 2), 26.8 and 31.5 and 32; in series [2] (Day 3), 26.8 and 31.5 and 31.8; in series [2] (Day 4), 27.2 and 31.4 and 33; in series [2] (Day 5) it was 27 and 31.3 and 32.7; in series [2] (Day 6), 27.4 and 31.3 and 33.8. Also, the BW is 26.9 and 31.5 and 33.5 in series [2] (Day 7); 26.6 and 32.7 and 34.1 in series [2] (Day 8); 27 and 33.3 and 34.2 in series [2] (Day 9); 27 and 34.5 and 34.4 in series [2] (Day 10); 27.7 and 36.6 and 35.1 in series [2] (Day 11); 28.8 and 37.4 and 35.9 in series [2] (Day 12). In addition, the “nucleic acid synthesis in hepatoma cells (green fluorescence)” value (from here on “nucleic acid synthesis in hepatoma cells”) in series [3] is listed as “no effect in inhibiting nucleic acid synthesis”. Further, the “toxicity to / killing of Hep3B cells (in words)” value in series [4] (MTT after 72 hours) is given as “no significant toxicity”. For the same molecule, the “toxicity to / killing of HepG2 cells (in words)” value in series [5] is recorded as “no significant toxicity”. The “toxicity to normal liver cells HL-7702 (in words)” value in series [1] is on record as “no significant toxicity”.
On to `CN1CCN(C(=O)Oc2ccc3c(c2)-c2nc4ccccc4nc2[C@@H]2C(C)(C)CCC[C@]32C)CC1` [pip-QX], for which the “nucleic acid synthesis in hepatoma cells” value in series [3] was “effect similar to AZT-QX”. The “toxicity to / killing of Hep3B cells (in words)” value in series [4] (MTT after 72 hours) is on record as “killed all the liver cell lines non-selectively”. Further, the “toxicity to / killing of HepG2 cells (in words)” value in series [5] is reported as “killed all the liver cell lines non-selectively”. Also, the “toxicity to normal liver cells HL-7702 (in words)” value in series [1] is “killed all the liver cell lines non-selectively”.
With `Cc1cn([C@H]2C[C@H](n3cc(CNC(=O)CCCCCOc4ccc5c(c4)-c4nc6ccccc6nc4[C@@H]4C(C)(C)CCC[C@]54C)nn3)[C@@H](CO)O2)c(=O)[nH]c1=O` [AZT-QX, N-((1-(2-(hydroxymethyl)-5-(5-methyl-2,4-dioxo-3,4-dihydro-pyrimidin-1(2H)-yl)-tetrahydrofuran-3-yl)-1H-1,2,3-triazol-4-yl)methyl)-6-(4b,8,8-trimethyl-4-b,5,6,7,8,8a-hexahydrodibenzo[a,c]phenazin-2-yloxy)hexanamide], the volume in the series with H22 liver cancer cells (Day 1, in mm³ (unit assumed)) is 256 and 288 and 500; in the series with H22 liver cancer cells (Day 2), 364.5 and 288 (2×); in the series on H22 liver cancer cells (Day 3, in mm³ (unit assumed)), 500 and 405 and 288; in the series with H22 liver cancer cells (Day 4, in mm³ (unit assumed)), 500 and 364.5 and 405; in the series on H22 liver cancer cells (Day 5, in mm³ (unit assumed)) it was 665.5 and 364.5 and 445.5; in the series with H22 liver cancer cells (Day 6, in mm³ (unit assumed)) it was 936 and 405 and 550. In addition, the volume was 907.5 and 500 and 550 in the series with H22 liver cancer cells (Day 7, in mm³ (unit assumed)); 1080 and 500 and 600 with H22 liver cancer cells (Day 8, in mm³ (unit assumed)); 1080 and 665.5 and 666 in the series on H22 liver cancer cells (Day 9, in mm³ (unit assumed)); 1080 and 786.5 and 726 in the series on H22 liver cancer cells (Day 10, in mm³ (unit assumed)); 1267.5 and 847 and 726 in the series with H22 liver cancer cells (Day 11, in mm³ (unit assumed)); 1267.5 and 1008 and 726 in the series with H22 liver cancer cells (Day 12, in mm³ (unit assumed)). For the same molecule, in the series on H22 liver cancer cells (injected intratumorally on day 1 and day 7, 100 μL), the “average tumor growth after 12 days (in words)” value is reported as “inhibits tumor growth”. Further, the BW in series [2] (Day 1) was 30.7 and 35.4 and 26.9; in series [2] (Day 2) it was 31.7 and 36.3 and 27.7; in series [2] (Day 3), 32 and 36 and 27.6; in series [2] (Day 4), 32.5 and 37.1 and 28; in series [2] (Day 5) it was 32.4 and 32.9 and 28.2; in series [2] (Day 6), 32.2 and 37 and 28.1. Further, the BW was 32 and 36.3 and 27.9 in series [2] (Day 7); 33.2 and 36.6 and 28.7 in series [2] (Day 8); 33.5 and 36.6 and 28.8 in series [2] (Day 9); 34.1 and 36.7 and 28.7 in series [2] (Day 10); 34.5 and 36.8 and 29 in series [2] (Day 11); 35.8 and 37.9 and 29.5 in series [2] (Day 12). Besides, in series [3], the “nucleic acid synthesis in hepatoma cells” value is listed as “effectively inhibits green fluorescence in hepatoma cells”. Besides, the “activity in combination with methotrexate” value in series [4] (Hep3B cells, methotrexate added) is listed as “additive effect”. Also, the Hep3B cells killed in series [4] (at 20 μM, MTT after 72 hours) was 80%. For the same molecule, the “activity after selective inhibition of thymidine kinase by siRNA” value in series [4] (hepatoma cells with hepatitis B, thymidine kinase siRNA) is recorded as “decreased”. In addition, in series [1] (at 200 μM), the “toxicity to human normal liver cells HL-7702 (in words)” value was “no significant toxicity”. Besides, the “nucleic acid synthesis in normal liver cells HL-7702” value in series [6] is reported as “does not affect the nucleic acid synthesis”.

Values taken from patent publication US8951988B2, “Azidothymidine quinoline conjugated compound, preparation method therefor and application thereof in anti-hepatoma therapy” (Huazhong University of Science and Technology, priority 2012, dated 2015).
